Test system: human myeloma cell line MM.1S
Assay: SILAC acetylated-lysine peptide profiling, HDAC inhibitor vs DMSO (light/heavy ratio)
Format: cell-based
Text: An embodiment of the invention comprises utilizing the SILAC method in order to quantitate changes in protein expression between two or more populations of cells. The SILAC method is a technique based on mass spectrometry that detects differences in protein abundance among samples using non-radioactive isotopic labeling. The SILAC method is known in the art, and described in detail in Ong et al., “Stable Isotope Labeling by Amino Acids in Cell Culture, SILAC, as a Simple and Accurate Approach to Expression Proteomics”, Molecular & Cellular Proteomics, vol. 1, pp. 376-386 (2002), which is incorporated herein by reference in its entirety.
Briefly, the SILAC method involves growing two populations of cells in cell culture. The first population of cells is grown in growth media containing normal amino acids (“normal media”). The second population of cells is grown in media lacking a standard essential amino acid (such as lysine), but is then supplemented with a non-radioactive, isotopically labeled form of that essential amino acid (such as lysine labeled with ^13C atoms, rather than normal ^12C atoms), which is called “heavy media”. When the two populations of cells are each growing in the medium, they incorporate the amino acids into all of their proteins. The growth of cells maintained in the heavy media is no different from that in normal media. All peptides containing the heavy amino acids are heavier than their normal counterparts. The cells from each of the two populations of cells are lysed. The lysates from each of the two cell populations are then combined. The combined cell lysates are then analyzed by mass spectrometry. Pairs of chemically identical peptides of different stable isotope composition can be differentiated in a mass spectrometer due to their difference in mass. The ratio of peak intensities in the mass spectrum for such peptide pairs reflects the abundance ratio for the two proteins.
This example describes SILAC studies that were performed to compare the effects of three different HDAC inhibitors (Compound A, Compound B, and tubastatin A) to a control on a human multiple myeloma cell line. The HDAC inhibitors were also compared amongst themselves to determine differences in their effects.
A human myeloma cell line MM.1S was grown using either ^12C (light) or ^13C (heavy) lysine containing culture medium. The “heavy” cells were treated with DMSO as the control, and the “light” cells were treated with a single HDAC inhibitor at 37° C. for 6 hours. The heavy and light cells were lysed, and the lysates were mixed in 1:1 ratio and digested with the protease trypsin. The acetylated lysine containing peptides (due to the action of the HDAC inhibitor) in the digested peptide pool were captured by a non-specific anti-acetylated lysine antibody cocktail (the antibodies identify both light and heavy acetylated peptides), and subjected to mass spectrometry analysis in order to identify thousands of individual peptides.
Thousands of peptides were identified in pairs (^12C and ^13C) due to their known mass differences. The amino acid sequence and quantitative ratio (Light/Heavy) of a given peptide in two differentially treated cell lysates were then determined and annotated with their possible protein (gene) sources.
As stated above, three HDAC inhibitors (Compound A, Compound B, and Tubastatin A) were used. Thus, the SILAC method was performed three times, with a different HDAC inhibitor compared to a control each time. Accordingly, there are three pairs of quantitative data in the table below, i.e., Compound A:DMSO, Compound B:DMSO, and Tubastatin A:DMSO. A cut-off of 1.30 fold of change (increase or decrease) was then used to determine “changed” or “+” in the table, and any peptides with a fold of change less than 1.3 fold were determined to be “unchanged” or “0” in the table. Those peptides that were not identified were marked as “NA” in the table. […]

O=C(NO)c1cnc(NC2(c3cccc(F)c3)CCCCC2)nc1 [Compound B, 2-((1-(3-fluorophenyl)cyclohexyl)amino)-N-hydroxypyrimidine-5-carboxamide]
L/H ratio of acetylated peptide […](ac)SHR (SEQ ID NO: 56) (IGLV2-14, IGLC2 [208], log 2 scale, drug vs DMSO): 0.00 | light to heavy ratio (L/H ratio) of acetylated peptide, log 2 scale (IGQGYLIK(ac)DGK (SEQ ID NO: 249), 60S ribosomal protein L3 [294], SNORD43, RPL3): 0.00 | L/H ratio of acetylated peptide (IIWHK(ac)FK (SEQ ID NO: 419), Isoform 1 of 39S ribosomal protein L47 mitochondrial [180], MRPL47): −0.73 log 2 | light to heavy ratio (L/H ratio) of acetylated peptide, log 2 scale (IMK(ac)DLDQCR (SEQ ID NO: 217), Protein S100-A10 [57], S100A10): 0.00 | L/H ratio of acetylated peptide (IMK(ac)SEVLR (SEQ ID NO: 434), 26S protease regulatory subunit 6A [56], PSMC3): 0.41 log 2 | L/H ratio of acetylated peptide (IMQK(ac)YGFR (SEQ ID NO: 440), Splicing factor 45 [245], RBM17): −0.50 log 2 | light to heavy ratio (L/H ratio) of acetylated peptide, log 2 scale (IQDK(ac)EGIPPDQQR (SEQ ID NO: 212), Ubiquitin-40S ribosomal protein S27a [33], RPS27A): 0.00 | L/H ratio of acetylated peptide (IQFK(ac)QDDGTGPEK (SEQ ID NO: 412), Isoform 1 of Far upstream element-binding protein 2 [359], KHSRP): 0.61 log 2 | light to heavy ratio (L/H ratio) of acetylated peptide, log 2 scale (ISK(ac)EVLAGR (SEQ ID NO: 167), Isoform Short of Heterogeneous nuclear ribonucleoprotein U [417], HNRNPU): 0.00 | L/H ratio of acetylated peptide (IYHPNVDK(ac)LGR (SEQ ID NO: 462), Ubiquitin-conjugating enzyme E2 N [82], UBE2N): −0.70 log 2 | light to heavy ratio (L/H ratio), log 2 scale, acetylated peptide LMK(ac)ICMNEDPAK (SEQ ID NO: 800) (Integrin-linked protein kinase [426], gene ILK, drug:DMSO): 0.00 | light to heavy ratio (L/H ratio) of acetylated peptide HAHGDQYK(ac)ATDFVADR (SEQ ID NO: 574) (Isocitrate dehydrogenase [NADP] mitochondrial [180], gene IDH2, inhibitor:DMSO): 0.00 log 2 | light to heavy ratio (L/H ratio) of acetylated peptide AGTFK(ac)MVFTPK (SEQ ID NO: 606) (Isocitrate dehydrogenase [NADP] mitochondrial [193], gene IDH2, inhibitor:DMSO): 0.00 log 2 | light to heavy ratio (L/H ratio) of acetylated peptide TDFDKNK(ac)IWYEHR (SEQ ID NO: 555) (Isocitrate dehydrogenase [NADP] mitochondrial [282], gene IDH2, inhibitor:DMSO): 0.00 log 2 | light to heavy ratio (L/H ratio) of acetylated peptide AVLIDK(ac)DQSPK (SEQ ID NO: 577) (Isoform 1 of 3-hydroxyisobutyryl-CoA hydrolase mitochondrial [353], gene HIBCH, inhibitor:DMSO): 0.00 log 2 | light to heavy ratio (L/H ratio) of acetylated peptide […](ac)VVQER (SEQ ID NO: 318) (Isoform 1 of 39S ribosomal protein L47 mitochondrial [144], MRPL47, drug:DMSO): 0.00 log 2 | light to heavy ratio (L/H ratio) of acetylated peptide ATVPK(ac)TEIR (SEQ ID NO: 272) (Isoform 1 of 40S ribosomal protein S24 [37], RPS24, drug:DMSO): 0.00 log 2 | light to heavy ratio (L/H ratio) of acetylated peptide ISK(ac)EEAMR (SEQ ID NO: 299) (Isoform 1 of 60S ribosomal protein L11 [159], RPL11, drug:DMSO): 0.00 log 2 | light to heavy ratio (L/H ratio) of acetylated peptide RPEILK(ac)QEIK (SEQ ID NO: 359) (Isoform 1 of AP-2 complex subunit beta [318], AP2B1, drug:DMSO): 0.57 log 2 | light to heavy ratio (L/H ratio) of acetylated peptide […](ac)ANVAK (SEQ ID NO: 364) (Isoform 1 of ATP synthase subunit d mitochondrial [58], ATP5H, drug:DMSO): 0.48 log 2 | light to heavy ratio (L/H ratio) of acetylated peptide VPVPEDK(ac)[…] (SEQ ID NO: 290) (Isoform 1 of ATP synthase subunit d mitochondrial [85], ATP5H, drug:DMSO): 0.00 log 2 | light to heavy ratio (L/H ratio) of acetylated peptide GHCPPAPAK(ac)PMHPENK(ac)LTNHGK (SEQ ID NO: 366) (Isoform 1 of B-cell CLL/lymphoma 9-like protein [36:43], BCL9L, drug:DMSO): 0.63 log 2 | light to heavy ratio (L/H ratio) of acetylated peptide VWNYK(ac)LR (SEQ ID NO: 593) (Isoform 1 of Coatomer subunit alpha [81], gene COPA, inhibitor:DMSO): 0.00 log 2 | light to heavy ratio (L/H ratio) of acetylated peptide SLLK(ac)PFCAALLK (SEQ ID NO: 329) (Isoform 1 of Cytoskeleton-associated protein 5 [438], CKAP5, drug:DMSO): 0.48 log 2 | light to heavy ratio (L/H ratio) of acetylated peptide ELEK(ac)VCNPIITK (SEQ ID NO: 612) (Isoform 1 of Heat shock cognate 71 kDa protein [601], gene HSPA8, inhibitor:DMSO): 0.00 log 2 | light to heavy ratio (L/H ratio) of acetylated peptide DVSYQGGK(ac)SIK (SEQ ID NO: 571) (Isoform 1 of Histone-lysine N-methyltransferase MLL3 [758], gene MLL3, inhibitor:DMSO): 0.00 log 2 | light to heavy ratio (L/H ratio) of acetylated peptide TLVLSDK(ac)HSPQK (SEQ ID NO: 523) (Isoform 1 of Histone-lysine N-methyltransferase MLL3 [2809], gene MLL3, inhibitor:DMSO): 0.00 log 2 | light to heavy ratio (L/H ratio) of acetylated peptide LVAENK(ac)FGK (SEQ ID NO: 296) (Isoform 1 of Hydroxyacyl-coenzyme A dehydrogenase mitochondrial [301], HADH, drug:DMSO): 0.00 log 2 | light to heavy ratio (L/H ratio) of acetylated peptide K(ac)[…] (SEQ ID NO: 316) (Isoform 1 of L-lactate dehydrogenase A chain [318], LDHA, drug:DMSO): 0.00 log 2 | light to heavy ratio (L/H ratio) of acetylated peptide INK(ac)ALDK (SEQ ID NO: 344) (Isoform 1 of Myosin-9 [435], MYH9, drug:DMSO): 0.43 log 2 | light to heavy ratio (L/H ratio) of acetylated peptide FYK(ac)[…] (SEQ ID NO: 596) (Isoform 1 of N-alpha-acetyltransferase 50 NatE catalytic subunit [37], gene NAA50, inhibitor:DMSO): 0.00 log 2 | light to heavy ratio (L/H ratio), log 2 scale, acetylated peptide […](ac)SK (SEQ ID NO: 767) (Isoform 1 of Peripherin [288], gene PRPH, drug:DMSO): 0.00

From patent US20140357512A1, “HISTONE DEACETYLASE (HDAC) BIOMARKERS IN MULTIPLE MYELOMA” (priority 2013, published 2014)
